Where two headings read alike, the source gives them in different places.
Assays:
[1] = target: T1, Fatty Acid Synthetase (Mus musculus, UniProt P19096); experiment: In vitro enzyme activity, liver homogenate: fatty acid synthetase; assay type: biochemical, CF1 male mouse; settings: ± SD, N = 6, read-out: Percent Control, in vitro enzyme activity
T1 construct: 10% homogenates of CF1 male mouse liver; from tissue; host or cells: CF1 male mouse liver, 10% homogenate
Procedure: (§1) In vitro enzymatic studies were undertaken using 10% homogenates of CF1 male mouse liver with […] of compound 3,4,5,6-dibenzohomopiperidine. In addition, in vivo enzymatic studies were performed, again using 10% liver homogenates (prepared in 0.25 M sucrose plus 0.001 M (ethylenedinitrilo)-tetraacetic acid, ph 7.25 from CF1 male mice obtained after administering 3,4,5,6-dibenzohomopiperidine for 16 days at a concentration ranging from 10 to 60 mg/kg/day, intraperitoneally.
(§2) The following enzyme activities were determined by following standard literature procedures: acetyl coenzyme synthetase; adenosine triphosphate dependent citrate lyase; mitochondrial citrate exchange; cholesterol/7 hydroxylase; 3-hydroxy-3-methyl-glutaryl coenzyme A reductase; acetyl coenzyme A carboxylase activity; fatty acid synthetase activity; sn-glycerol-3-phosphate acyl transferase activity; phosphatidate phosphohydrolase activity; cholesterol acyl transferase; and heparin activated hepatic lypoprotein lipase. Protein was determined for all enzyme assays by the Lowry et al. technique (J. Biol. Chem, 193, 265 (1951)).

[2] = test system: Mitochondrial Citrate Exchange; experiment: In vitro enzyme activity, liver homogenate: mitochondrial citrate exchange; assay type: biochemical, CF1 male mouse; settings: ± SD, N = 6
Procedure: as §1, §2

[3] = target: T2, Hepatic Lipoprotein Lipase (Mus musculus, UniProt P27656); experiment: In vitro enzyme activity, liver homogenate: hepatic lipoprotein lipase; assay type: biochemical, CF1 male mouse; settings: ± SD, N = 6, read-out: Percent Control, in vitro enzyme activity
T2 construct: 10% homogenates of CF1 male mouse liver; from tissue; host or cells: CF1 male mouse liver, 10% homogenate
T2 sequence (P27656 22-510): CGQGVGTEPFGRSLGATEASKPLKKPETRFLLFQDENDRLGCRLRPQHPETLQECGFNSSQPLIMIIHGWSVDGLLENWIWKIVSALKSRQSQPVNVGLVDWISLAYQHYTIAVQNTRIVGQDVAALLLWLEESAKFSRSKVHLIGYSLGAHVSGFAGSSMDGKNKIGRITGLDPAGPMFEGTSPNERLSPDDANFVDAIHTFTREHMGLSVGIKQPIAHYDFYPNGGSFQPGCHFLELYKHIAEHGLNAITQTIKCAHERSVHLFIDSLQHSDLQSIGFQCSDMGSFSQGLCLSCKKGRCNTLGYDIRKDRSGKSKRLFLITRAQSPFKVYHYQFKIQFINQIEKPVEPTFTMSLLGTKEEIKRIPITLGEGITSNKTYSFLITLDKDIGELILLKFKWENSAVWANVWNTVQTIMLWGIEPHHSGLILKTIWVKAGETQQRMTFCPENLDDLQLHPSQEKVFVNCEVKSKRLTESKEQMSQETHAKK
Procedure: as §1, §2

[4] = test system: serum triglycerides; experiment: Testing of Normal Mice: serum triglycerides (BioDynamics kit), Example 7; assay type: in vivo, CF1 male mice; settings: Mus musculus, 384 h, day 16, ± SD
[5] = test system: serum cholesterol; experiment: Testing of Normal Mice: serum cholesterol (modified Liebermann-Burchard), Example 7; assay type: in vivo, CF1 male mice; settings: Mus musculus, 20 mg/kg/day ip
Procedure: Suspensions of Compounds Nos. 1-9 were prepared wherein the compounds were suspended in an aqueous 1% carboxymethylcelluose solution, homogenized and administered to CF1 male mice, each weighing approximately 25 grams, intraperitoneally on a daily basis for 16 days. The dosage was, with the exception of one compound, 20 milligrams of the active compound per kilogram of mouse weight per day. On days 9 and 16 blood was obtained by tail vein bleeding. The blood serum was separated by centrifugation for three minutes. Serum cholesterol levels were determined by a modification of the Liebermann-Burchard reaction. Serum was also collected on day 16 and the triglycerides content was determined by a commercial kit, BioDynamics/bnc Single Vile Colorimetric Method 348201. Each compound was tested on a group of six mice.
In addition to the above-described treated mice, untreated control groups of six mice were similarly tested on days 9 and 14 or 16 to determine their serum cholesterol and triglycerides blood levels. Table 5 reports the percent control, based on the serum cholesterol and serum triglyceride levels of the treated mice compared to the untreated controls. Table 5 also includes the standard deviation indicating the level of confidence of these numbers.
Example 7 was repeated substituting clofibrate, a compound used in the prior art to lower serum cholesterol and serum triglyceride levels. The clofibrate was administered as a suspension in an aqueous 1% solution of carboxymethylcellulose. However, unlike the compounds of the present invention which were administered at a dosage of 20 mg/kg day, ip, this compound was administered at the elevated concentration of 150 mg/kg day, ip.

[6] = test system: serum triglycerides; experiment: Testing of Normal Rats: serum triglycerides, Example 8; assay type: in vivo, Sprague Dawley male rats; settings: oral 20 mg/kg/day
Procedure: In Example 8 a set of six Sprague Dawley male rats, each weighing approximately 350 grams, were orally treated with a concentration of 20 mg per kilogram of rat weight per day, again suspended in a 1% aqueous solution of CMC. The dosage was applied orally by an intubation needle. On days 9 and 16 serum cholesterol and serum triglycerides blood levels of the rats were measured utilizing th procedure of Example 7.
A control group of six similar Sprague Dawley male rats were untreated but tested on Days 9 and 16 in accordance with the tests administered to the treated rats. Table 6 reports the percent control based on the decrease in serum cholesterol and serum triglycerides of the treated rats compared to the levels measured in the untreated control group.

T1 sequence (P19096 whole entry): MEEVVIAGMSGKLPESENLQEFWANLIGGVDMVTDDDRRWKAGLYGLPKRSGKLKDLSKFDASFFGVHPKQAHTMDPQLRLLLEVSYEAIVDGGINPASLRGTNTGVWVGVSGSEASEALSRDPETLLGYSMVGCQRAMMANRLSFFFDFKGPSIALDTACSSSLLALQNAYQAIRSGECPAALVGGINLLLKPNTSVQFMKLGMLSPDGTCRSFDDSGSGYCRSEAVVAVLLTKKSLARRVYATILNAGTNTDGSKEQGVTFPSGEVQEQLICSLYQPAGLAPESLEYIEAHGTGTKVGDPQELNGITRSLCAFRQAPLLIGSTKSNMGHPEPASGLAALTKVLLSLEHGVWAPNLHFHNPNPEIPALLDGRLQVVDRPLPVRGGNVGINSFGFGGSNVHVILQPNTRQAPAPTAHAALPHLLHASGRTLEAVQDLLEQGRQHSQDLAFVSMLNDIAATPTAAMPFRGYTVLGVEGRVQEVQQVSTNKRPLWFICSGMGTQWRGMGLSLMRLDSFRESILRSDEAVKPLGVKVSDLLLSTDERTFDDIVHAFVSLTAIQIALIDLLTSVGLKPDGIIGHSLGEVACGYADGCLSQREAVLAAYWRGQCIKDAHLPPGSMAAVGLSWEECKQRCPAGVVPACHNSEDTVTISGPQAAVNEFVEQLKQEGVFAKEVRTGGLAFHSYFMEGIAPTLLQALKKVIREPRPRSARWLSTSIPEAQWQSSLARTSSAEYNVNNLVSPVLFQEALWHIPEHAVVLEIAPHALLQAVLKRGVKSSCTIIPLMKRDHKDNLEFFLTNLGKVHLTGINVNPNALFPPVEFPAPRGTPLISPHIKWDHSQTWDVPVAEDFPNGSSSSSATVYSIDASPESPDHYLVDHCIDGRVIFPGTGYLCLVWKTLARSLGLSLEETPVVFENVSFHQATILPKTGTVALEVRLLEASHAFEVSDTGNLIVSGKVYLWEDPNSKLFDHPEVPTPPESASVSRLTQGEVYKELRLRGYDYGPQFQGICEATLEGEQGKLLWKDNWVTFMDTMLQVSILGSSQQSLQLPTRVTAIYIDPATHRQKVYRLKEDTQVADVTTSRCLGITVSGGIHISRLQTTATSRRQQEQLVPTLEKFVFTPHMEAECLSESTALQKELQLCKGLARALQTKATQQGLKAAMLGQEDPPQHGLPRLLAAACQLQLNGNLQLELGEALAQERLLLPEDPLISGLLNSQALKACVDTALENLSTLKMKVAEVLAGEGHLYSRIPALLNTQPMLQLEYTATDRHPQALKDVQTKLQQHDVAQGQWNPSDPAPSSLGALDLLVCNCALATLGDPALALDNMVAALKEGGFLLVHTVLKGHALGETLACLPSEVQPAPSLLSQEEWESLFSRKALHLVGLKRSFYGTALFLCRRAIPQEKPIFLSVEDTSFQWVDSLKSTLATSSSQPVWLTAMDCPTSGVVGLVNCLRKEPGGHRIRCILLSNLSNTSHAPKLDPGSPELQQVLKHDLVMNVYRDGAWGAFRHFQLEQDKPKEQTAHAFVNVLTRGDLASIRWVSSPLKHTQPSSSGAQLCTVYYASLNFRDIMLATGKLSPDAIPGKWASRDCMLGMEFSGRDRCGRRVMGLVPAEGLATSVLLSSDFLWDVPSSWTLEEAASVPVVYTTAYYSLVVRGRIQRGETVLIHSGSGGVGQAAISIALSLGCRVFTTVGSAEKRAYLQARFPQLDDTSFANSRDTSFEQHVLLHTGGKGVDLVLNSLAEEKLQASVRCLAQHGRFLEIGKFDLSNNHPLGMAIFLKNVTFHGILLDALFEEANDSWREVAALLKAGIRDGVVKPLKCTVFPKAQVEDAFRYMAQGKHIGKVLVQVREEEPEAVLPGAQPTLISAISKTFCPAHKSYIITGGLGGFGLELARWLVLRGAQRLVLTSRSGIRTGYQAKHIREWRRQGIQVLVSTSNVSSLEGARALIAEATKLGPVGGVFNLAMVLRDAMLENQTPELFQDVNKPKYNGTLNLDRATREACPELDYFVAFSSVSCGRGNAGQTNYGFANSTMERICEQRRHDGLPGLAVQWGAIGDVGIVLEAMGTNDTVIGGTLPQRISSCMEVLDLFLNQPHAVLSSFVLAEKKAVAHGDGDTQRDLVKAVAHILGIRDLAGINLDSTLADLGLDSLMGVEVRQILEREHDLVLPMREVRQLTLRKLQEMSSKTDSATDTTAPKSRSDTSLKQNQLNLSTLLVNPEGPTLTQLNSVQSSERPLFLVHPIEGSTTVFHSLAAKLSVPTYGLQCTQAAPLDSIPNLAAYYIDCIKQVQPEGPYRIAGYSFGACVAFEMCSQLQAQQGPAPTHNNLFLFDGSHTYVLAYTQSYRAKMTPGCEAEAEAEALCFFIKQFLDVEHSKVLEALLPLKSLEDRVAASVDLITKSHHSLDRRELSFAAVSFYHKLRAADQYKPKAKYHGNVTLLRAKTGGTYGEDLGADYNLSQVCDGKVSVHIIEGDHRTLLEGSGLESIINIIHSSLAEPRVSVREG

## c1ccc2c(c1)CNCc1ccccc1-2 [Compound 3, 3,4,5,6-dibenzohomopiperidine]
[1]; 50 μM
  remaining activity at 50 µM: 91 ± 7%
[1]; 100 μM
  remaining activity at 100 µM: 92 ± 8%
[1]; 200 μM
  remaining activity at 200 µM: 101 ± 9%
[2]; 50 μM
  Percent Control, in vitro enzyme activity: 99 ± 6%
[2]; 100 μM
  Percent Control, in vitro enzyme activity: 97 ± 5%
[2]; 200 μM
  Percent Control, in vitro enzyme activity: 99 ± 7%
[3]; 50 μM
  remaining activity at 50 µM: 90 ± 7%
[3]; 100 μM
  remaining activity at 100 µM: 89 ± 6%
[3]; 200 μM
  remaining activity at 200 µM: 72 ± 5%
[4]; 10 mg/kg/day ip
  response vs control in vivo at 10 mg/kg: 48 ± 5%
[4]; 40 mg/kg/day ip
  response vs control in vivo at 40 mg/kg: 44 ± 6%
[4]; 60 mg/kg/day ip
  response vs control in vivo at 60 mg/kg: 55 ± 6%
[5]; 216 h, day 9, ± SD, read-out: Serum Cholesterol Control, % Day 9
  response vs control in vivo at 20 mg/kg: 68 ± 4%
[5]; 384 h, day 16, ± SD, read-out: Serum Cholesterol Control, % Day 16
  response vs control in vivo at 20 mg/kg: 48 ± 4%
[6]; day 9
  % Control Serum Triglycerides Day 9: 54%
[6]; day 16
  % Control Serum Triglycerides Day 16: 54%

— US4689326A, “Process for controlling hyperlipidemia” (Research Corporation, priority 1985, dated 1987)
